Results reported in patent publication US20050020576A1, “Kappa agonist compounds and pharmaceutical formulations thereof” (priority 1996, published 2005).
Where “and” joins values, the source holds several entries; their conditions need not be identical. Equal entries are not always repeated. Structures can show the parent of a compound that is named as a salt. Where two headings read alike, the source gives them in different places.

Tests used:
[1] = target: cloned human kappa receptor (Homo sapiens, UniProt P41145); assay: biochemical; format: binding
cloned human kappa receptor, sequence (P41145 whole entry): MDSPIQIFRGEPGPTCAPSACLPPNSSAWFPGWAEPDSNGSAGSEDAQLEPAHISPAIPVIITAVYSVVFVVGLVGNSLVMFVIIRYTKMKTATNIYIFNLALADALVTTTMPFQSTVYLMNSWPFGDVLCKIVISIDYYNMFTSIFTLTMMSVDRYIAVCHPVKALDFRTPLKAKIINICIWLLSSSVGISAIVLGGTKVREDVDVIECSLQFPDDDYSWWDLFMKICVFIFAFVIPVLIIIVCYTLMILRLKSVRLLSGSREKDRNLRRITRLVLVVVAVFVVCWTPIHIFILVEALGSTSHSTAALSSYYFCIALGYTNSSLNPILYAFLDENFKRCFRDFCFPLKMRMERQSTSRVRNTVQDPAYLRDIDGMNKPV

[2] = tested on: formalin-induced flinching; assay: animal or person; format: in vivo, male Sprague-Dawley rats; conditions: for inhibition in vivo at 0.3 µM: Rattus norvegicus, read-out: Formalin (% A @ 300 nM) i. paw
[3] = Table IA, read-out: Ki(nM) (3H)-Diprenorphin

What does the source list for `CC(C)COC(=O)CNC(=O)CCC(=O)Nc1cccc([C@@H](CN2CCCC2)N(C)C(=O)Cc2ccc(Cl)c(Cl)c2)c1` [Example 3i, 2-(3,4-Dichlorophenyl)-N-methyl-N-{(1S)-1-[3-(3-(((iso-butoxycarbonyl)-methyl)aminocarbonyl)propionamido)phenyl]-2-(1-pyrrolidinyl)ethyl}acetamide hydrochloride]?
Ki ([1]; Ki (nM) [3H]-Diprenorphin κ): 0.14 nM; Late Phase Formalin, % @ 300 ([2]; rat, in vivo): 23% @ 300

For “(S)-2-(2-N-Methylsulfonamido-2-aminophenyl)-N-methyl-N-1-(4-hydroxyphenyl)-2-(1-pyrrolidinyl)ethyl]acetamide [Example 129B]”, which Ki ([1]; read-out: Ki(nM) [3H]-Diprenorphin κ) is on record?
Its Ki is 75 nM.

What about the “Late Phase Formalin (i. paw), % @ 300” value ([2]; rat, in vivo) of the same molecule?
Its value is >46% @ 300.

For `CC(=O)N1CCN(C(=O)Cc2ccc(Cl)c(Cl)c2)C(CN2CC[C@H](OC(=O)Cc3ccc(Cl)c(Cl)c3)C2)C1` (mixture of isomers) [Example 1w, 4-Acetyl-1-[(3,4-dichlorophenyl)acetyl]-2-(R,S)-[3-(S)-(3′,4′-dichlorophenyl acetate)-1-(pyrrolidinyl)methyl]piperazine hydrochloride], which Ki [1, 3] is on record?
Its Ki is 1160 nM.

What about the inhibition in vivo at 0.3 µM [2] of the same molecule?
The inhibition in vivo at 0.3 µM was 60%.

What does the source list for `CN(C(=O)Cc1ccccc1NS(C)(=O)=O)C(CN1CCCC1)c1ccc(O)cc1` (racemic) [Example 129A, (R,S)-2-(2-N-Methylsulfonamido-2-aminophenyl)-N-methyl-N-1-(4-hydroxyphenyl)-2-(1-pyrrolidinyl)ethyl]acetamide]?
Ki ([1]; Ki (nM) [3H]-Diprenorphin κ): 59 nM; Late Phase Formalin (i. paw), % @ 300 ([2]; rat, in vivo): 46% @ 300

For `CN(C(=O)Cc1ccc(Cl)c(Cl)c1)[C@H](CN1CCCC1)c1cccc(NC(=O)CCC(=O)NCC(=O)O)c1` [Example 3j, 2-(3,4-Dichlorophenyl)-N-methyl-N-{(1R,S)-1-[3-(3-(((hydroxycarbonyl)-methyl)aminocarbonyl)propionamido)phenyl]-2-(1-pyrrolidinyl)ethyl}acetamide hydrochloride], which Ki ([1]; Ki (nM) [3H]-Diprenorphin κ) is on record?
The Ki was 2.3 nM.

And the “Late Phase Formalin, % @ 300” value ([2]; rat, in vivo)?
Its value is 38% @ 300.

For `COC(=O)N1CCN(C(=O)Cc2ccccc2N(S(C)(=O)=O)S(C)(=O)=O)C(CN2CCCC2)C1` (racemic) [Example 1d, Methyl-4-[(2-[N,N-bis-methylsulfonamido]phenyl)acetyl]-3-(R,S)-[(1-pyrrolidinyl)methyl]-1-piperazinecarboxylate hydrochloride], which Ki ([1]; Ki, nM 3H-Diprenorphin) is on record?
The Ki was 7.6 nM.

And the inhibition in vivo at 0.3 µM [2]?
The inhibition in vivo at 0.3 µM was 77%.

What does the source list for `CNS(=O)(=O)c1ccc(CC(=O)N(C)[C@H](CN2CC[C@H](O)C2)c2ccccc2)cc1` [Example 146, 2-[4-N-(Methylsulfamoyl)-phenyl]-N-methyl-N-[(1S)-1-phenyl-2-[1-(3S)-(3-hydroxypyrrolidinyl)ethyl]]acetamide]?
Ki ([1]; Ki (nM) [3H]-Diprenorphin κ): 1 nM; Late Phase Formalin (i. paw), % @ 300 ([2]; rat, in vivo): 52% @ 300

Which Ki ([1]; Ki, nM 3H-Diprenorphin) does the source give for `CC(=O)N1CCN(C(=O)Cc2ccc(C(F)(F)F)cc2)C(CN2CCCC2)C1` (racemic) [(R,S-10b), hydrochloride] here?
Its Ki is 26 nM and 24 nM.

What about the “Late Phase Formalin, % @ 300; i.paw” value ([2]; rat, in vivo) of the same molecule?
The value was 89% @ 300.

With `CNS(=O)(=O)c1cc(CC(=O)N(C)[C@@H]2CCCC[C@H]2N2CCCC2)ccc1F.Cl` (racemic) [Example 4i, (±)-trans-4-Fluoro-3-methylsulfamoyl-N-methyl-N-[2-(1-pyrrolidinyl)cyclohexyl]phenylacetamide hydrochloride] as the molecule, how does the “[3H]-Diprenorphin, % @ 1 μM” value [1] read?
The value was 31% @ 1 μM.

What about the melting point of the same molecule?
The melting point was 265 to 267 °C.

Which Ki ([1]; Ki, nM 3H-Diprenorphin) does the source give for `COC(=O)N1CCN(C(=O)Cc2ccc(Cl)c(Cl)c2)C(CN2CCCC2CO)C1` [Example 1l, Methyl-4-[(3,4-dichlorophenyl)acetyl]-3-(R)-[(2-(S)-pyrrolidinemethanol)methyl]-1-piperazinecarboxylate hydrochloride] here?
Its Ki is 3.5 nM.

What about the “Formalin A50 mg/kg s.c.” value ([2]; rat, in vivo, sc) of the same molecule?
Its value is 1.7 mg/kg.

With `CNS(=O)(=O)c1cccc(CC(=O)N(C)[C@H](CN2CCCC2)c2ccccc2)c1.Cl` [Example 3q, 3-(N-Methylsulfamoyl)-phenyl-N-methyl-N-[(1S)-1-phenyl-2-(1-pyrrolidinyl)ethyl]acetamide hydrochloride] as the molecule, how does the Ki ([1]; Ki (nM) [3H]-Diprenorphin κ) read?
The Ki was 3.2 nM.

What about the melting point of the same molecule?
Its melting point is > 250 °C (dec.).

What does the source list for `CN(C(=O)C(c1ccccc1)c1ccccc1)[C@H](CN1CC[C@H](O)C1)c1ccccc1` [III-43, reference compound]?
Late Phase Formalin A50, mg/ms (i-paw) ([2]; rat, in vivo): 59 mg/ms (i-paw) 28 mg/kg (sc); Late Phase Formalin A50, mg/kg (sc) ([2]; rat, in vivo, sc): 59 mg/ms (i-paw) 28 mg/kg (sc)

What does the source list for `COC(=O)N1CCN(C(=O)Cc2ccc(C(F)(F)F)cc2NCC(=O)O)C(CN2CCCC2)C1` (racemic) [Example 1a, Methyl-4-[-2-glycyl-4-(trifluoromethylphenyl)acetyl]-3-(R,S)-[(1-pyrrolidinyl)-methyl]-1-piperazinecarboxylate]?
Ki [1, 3]: 248 nM; melting point: 165 to 170 °C

With `COC(=O)N1CCN(C(=O)Cc2ccc(C(F)(F)F)cc2N(S(C)(=O)=O)S(C)(=O)=O)C(CN2CCCC2)C1` (racemic) (as salt: hydrochloride) [Example 1b, Methyl-4-[(2-[N,N-bis-methylsulfonamido]-4-trifluoromethyphenyl)acetyl]-3-(R,S)-[(1-pyrrolidinyl)-methyl]-1-piperazinecarboxylate dihydrochloride] as the molecule, how does the melting point read?
The melting point was 155 to 160 °C.

With `CN(C(=O)Cc1ccc(N)cc1)[C@H](CN1CCCC1)c1cccc([N+](=O)[O-])c1` (as salt: HCl) as the molecule, how does the melting point read?
Its melting point is 200 °C (dec.).

For `CN(C(=O)Cc1ccccc1NCC(=O)O)C1CCCCC1N1CCCC1` (stereo not shown) (as salt: HCl), which melting point is on record?
The melting point was 212 to 214 °C (dec.).

With `COC(=O)N1CCN(C(=O)Cc2ccccc2N(S(C)(=O)=O)S(C)(=O)=O)C(CN2CCCC2)C1` (racemic) (as salt: hydrochloride) [Example 1d, Methyl-4-[(2-[N,N-bis-methylsulfonamido]phenyl)acetyl]-3-(R,S)-[(1-pyrrolidinyl)methyl]-1-piperazinecarboxylate hydrochloride] as the molecule, how does the melting point read?
The melting point was 145 to 150 °C.

With `O=C(Cc1ccc(Cl)c(Cl)c1)N1CCN(C(=O)C(F)(F)F)C[C@H]1CN1CCCC1` (as salt: hydrochloride) [(R-3h), (R)-4-Trifluoroacetyl-1-(3,4-dichlorophenyl)acetyl]-2-[(1-pyrrolidinyl)methyl]-piperazine hydrochloride] as the molecule, how does the melting point read?
The melting point was 145 to 147 °C.

For `CC(C)C(=O)Nc1cccc([C@@H](CN2CCCC2)N(C)C(=O)Cc2ccccc2NC(=O)C(C)C)c1` (as salt: sulfonic acid salt) [Example 3qq, 2-(2-Iso-butyramidophenyl)-N-methyl-N-[(1S)-1-(3-isobutyramido-phenyl)-2-(1-pyrrolidinyl)ethyl]acetamide Methanesulfonic acid salt], which melting point is on record?
Its melting point is 143 to 145 °C.

For `CC(=O)N1CCN(C(=O)Cc2ccc(S(C)(=O)=O)cc2)C(CN2CCCC2)C1` (racemic) (as salt: hydrochloride) [(R,S-10a)], which melting point is on record?
The melting point was 145 to 147 °C.

Which melting point does the source give for `CNS(=O)(=O)c1ccccc1CC(=O)N1CCN(C(=O)OC)CC1CN1CCCC1` (racemic) (as salt: hydrochloride) [Example 1e, Methyl-4-[(2-[N-methylamino)sulfamyl]phenyl)acetyl]-3-(R,S)-[(1-pyrrolidinyl)methyl]-1-piperazinecarboxylate hydrochloride] here?
The melting point was 155 to 160 °C.

With `CN(C(=O)C(c1ccccc1)c1ccccc1)[C@@H]1c2ccccc2C[C@H]1N1CCCC1` (racemic) (as salt: HCl) as the molecule, how does the melting point read?
The melting point was > 300 °C.

Which melting point does the source give for `CN(C(=O)Cc1ccccc1NS(C)(=O)=O)[C@@H]1CCCC[C@H]1N1CCCC1.Cl` (racemic) here?
The melting point was 229 to 231 °C.

For `CN(C(=O)Cc1ccc(S(C)(=O)=O)cc1)[C@H](CN1CCCC1)c1cccc([N+](=O)[O-])c1` (as salt: HCl), which melting point is on record?
Its melting point is 276 to 277 °C.
